The values that follow come from patent US12139508B2, “Steroid derivative regulators, method for preparing the same, and uses thereof” (JIANGSU HANSOH PHARMACEUTICAL GROUP CO., LTD., priority 2018, dated 2024).

pIC50: −log10 of the molar value.

For this test, the target named is GABA-A receptor. Briefly: 35S-TBPS binding assay (GABAA receptor binding ability test). The arrangement: species or system Sprague-Dawley rat. Conditions: rat cerebral cortex cell membrane, 5 μM GABA, 2 nM 35S-TBPS; read-out: 35S-TBPS bindng test: IC50 on inhibiting the TBPS binding activity. On the procedure: 1.2 Experimental Procedures 1.2.1 Extraction of Cerebral Cortex Cell Membrane:
1. The cerebral cortex of male Sprague-Dawley rat was isolated.
2. A pre-chilled 0.32 M sucrose solution (one tablet of protease inhibitor was added per 100 ml) was added to the cerebral cortex (the volume of sucrose solution was 10 times the volume of the cerebral cortex). The mixture was crushed with a 50 mL glass tissue homogenizer in batches and mixed well.
3. The mixture was centrifuged at 1500 g, 4° C. for 10 minutes, and the supernatant was collected.
4. The mixture was centrifuged at 20000 g, 4° C. for 30 minutes, and the supernatant was discarded.
5. The precipitate was resuspended with the pre-chilled phosphate buffer saline (PBS) (one tablet of protease inhibitor was added per 100 ml). An average of 4 ml of PBS was added per rat, and the mixture was mixed well by a glass tissue homogenizer.
6. The mixture was centrifuged at 10000 g, 4° C. for 10 minutes, and the supernatant was discarded.
7. Steps 5 and 6 were repeated three times.
8. Finally, the precipitate was resuspended with 4 volumes of PBS. The resulting solution was dispensed, frozen in liquid nitrogen, and stored at −80° C.
9. The protein concentration was measured by the bicinchoninic acid (BCA) method.
1.2.2 ^35S-TBPS Binding Assay
1. 230 μL of PBS was added to each well of a well plate with 1.1 ml volume.
2. 60 μL of the cerebral cortex cell membrane (5 μg/μL) solution was added to each well, and the mixture was mixed well.
3. The test compound (3 μL per well) was added, and the plate was incubated at 25° C. for 5 minutes. The DMSO concentration was 1%. The initial compound concentration was 1 μM, and a 3-fold dilution in gradient was carried out to obtain a total of 8 gradients and 2 replicates. 1% DMSO was used as a negative control, and 10 μM P026-2 was used as a positive control.
4. GABA was added at a final concentration of 5 μM, and incubated at 25° C. for 5 minutes. 1 mM GABA solution was formulated, and 1.5 μL of the solution was added to each well.
5. ^35S-TBPS was added at a final concentration of 2 nM. The concentration of isotope mother solution was 9.7 μM. After dilution with PBS for 100 times, 6 μL of the diluted isotope solution was added to each well.
6. The plate was incubated at 4° C. for 20 hours.
7. The FilterMate GF/C plate was pre-treated with 0.5% PEI, and incubated at 4° C. for 1 hour.
8. The FilterMate GF/C plate was washed with Universal Harvester twice, 50 ml PBS each time.
9. The reaction solution was transferred to the GF/C plate, and each well was washed 4 times with 900 μL of PBS.
10. The washed GF/C plate was placed at 55° C. and dried for 10 minutes.
11. 40 μL of scintillation solution was added to each well, and the CPM value was read with TopCount.
1.2.3 Experimental Data Processing Method:
In the experiment, the CPM (counts per minute) value was read with TopCount. According to the readings of the High control (DMSO) and the Low control ([…] of the positive compound) experimental groups, the […] inhibition was calculated based on the following formula: % Inhibition=100×(CPMHigh control−CPMSample)/(CPMHigh control−CPMLow control)
The IC50 of the compound was calculated according to the following 4-parameter nonlinear logic formula: Y=Bottom+(Top−Bottom)/(1+10^((Log IC50−X)*Hill Slope)),
wherein: • X represents the log of compound concentration, • Y represents the 0 Inhibition.
The effect of the compound of the present invention on the TBPS binding activity was determined by the above test, and the measured IC50 values are shown in Table 1.
Take `C[C@@H]1C[C@H](C(=O)Cn2cc(C#N)c(C3CC3)n2)[C@@]2(C)CC[C@H]3[C@@H](CC[C@@H]4C[C@](C)(O)CC[C@@H]43)[C@H]12` [Example 69, 3-Cyclopropyl-1-(2-((3R,5R,8R,9R,10S,13S,14S,15R,17S)-3-hydroxy-3,13,15-trimethylhexadecahydro-1H-cyclopenta[a]phenanthren-17-yl)-2-oxoethyl)-1H-pyrazole-4-carbo nitrile]: the pIC50 is 8.12.

For the molecule `Cc1c(C#N)cnn1CC(=O)[C@H]1[C@H]2C[C@H]2[C@H]2[C@@H]3CC[C@@H]4C[C@](C)(O)CC[C@@H]4[C@H]3CC[C@@]21C` [Example 37B, 1-(2-((2R,4aS,4bR,6aS,7S,7aS,8aR,8bR,8cR,10aR)-2-Hydroxy-2,6a-dimethyloctadecahydrocyclopropa[4,5]cyclopenta[1,2-a]phenanthren-7-yl)-2-oxoethyl)-5-methyl-1H-pyrazole-4-carbonitrile], the pIC50 was 7.81. Next, `C[C@@]1(O)CC[C@H]2[C@H](CC[C@@H]3[C@@H]2CC[C@@]2(C)[C@H]3[C@@H]3C[C@@H]3[C@@H]2C(=O)Cn2ncc(C#N)c2C2CC2)C1` [Example 34, 5-Cyclopropyl-1-(2-((2R,4aS,4bR,6aS,7S,7aS,8aR,8bR,8cR,10aR)-2-hydroxy-2,6a-dimethyloctadecahydrocyclopropa[4,5]cyclopenta[1,2-a]phenanthren-7-yl)-2-oxoethyl)-1H-pyrazole-4-carbonitrile]: 7.55. As for `CC(=O)[C@H]1[C@H]2C[C@H]2[C@H]2[C@@H]3CC[C@@H]4C[C@](C)(O)CC[C@@H]4[C@H]3CC[C@@]21C` [Example 1, 1-((2R,4aS,4bR,6aS,7S,7aS,8aR,8bR,8cR,10aR)-2-Hydroxy-2,6a-dimethyloctadecahydrocyclopropa[4,5]cyclopenta[1,2-a]phenanthren-7-yl)ethan-1-one], the figure is 7.82; as for `COc1ccc2nnn(CC(=O)[C@H]3[C@H]4C[C@H]4[C@H]4[C@@H]5CC[C@@H]6C[C@](C)(O)CC[C@@H]6[C@H]5CC[C@@]43C)c2c1` [Example 54A, 1-((2R,4aS,4bR,6aS,7S,7aS,8aR,8bR,8cR,10aR)-2-Hydroxy-2,6a-dimethyloctadecahydrocyclopropa[4,5]cyclopenta[1,2-a]phenanthren-7-yl)-2-(6-methoxy-1H-benzo[d][1,2,3]triazol-1-yl)ethan-1-one], 7.93; as for `COc1ccc2nn(CC(=O)[C@H]3[C@H]4C[C@H]4[C@H]4[C@@H]5CC[C@@H]6C[C@](C)(O)CC[C@@H]6[C@H]5CC[C@@]43C)nc2c1` [Example 53, 1-((2R,4aS,4bR,6aS,7S,7aS,8aR,8bR,8cR,10aR)-2-Hydroxy-2,6a-dimethyloctadecahydrocyclopropa[4,5]cyclopenta[1,2-a]phenanthren-7-yl)-2-(5-methoxy-2H-benzo[d][1,2,3]triazol-2-yl)ethan-1-one], 7.91. As for `C[C@@]1(O)CC[C@H]2[C@H](CC[C@@H]3[C@@H]2CC[C@@]2(C)[C@H]3[C@@H]3C[C@@H]3[C@@H]2C(=O)Cn2ccnn2)C1` [Example 8, 1-((2R,4aS,4bR,6aS,7S,7aS,8aR,8bR,8cR,10aR)-2-Hydroxy-2,6a-dimethyloctadecahydrocyclopropa[4,5]cyclopenta[1,2-a]phenanthren-7-yl)-2-(1H-1,2,3-triazol-1-yl)ethan-1-one], the figure is 7.38. On to `Cc1nnnn1CC(=O)[C@H]1[C@H]2C[C@H]2[C@H]2[C@@H]3CC[C@@H]4C[C@](C)(O)CC[C@@H]4[C@H]3CC[C@@]21C` [Example 101, 1-((2R,4aS,4bR,6aS,7S,7aS,8aR,8bR,8cR,10aR)-2-Hydroxy-2,6a-dimethyloctadecahydrocyclopropa[4,5]cyclopenta[1,2-a]phenanthren-7-yl)-2-(5-methyl-1H-tetrazol-1-yl)ethan-1-one], for which the pIC50 is 7.94. As for `C[C@@H]1C[C@H](C(=O)Cn2cc(C(=O)N3CCC3)cn2)[C@@]2(C)CC[C@H]3[C@@H](CC[C@@H]4C[C@](C)(O)CC[C@@H]43)[C@H]12` [Example 133, 2-(4-(Azetidine-1-carbonyl)-1H-pyrazol-1-yl)-1-((3R,5R,8R,9R,10S,13S,14S,15R,17S)-3-hydroxy-3,13,15-trimethylhexadecahydro-1H-cyclopenta[a]phenanthren-17-yl)ethan-1-one], the figure is 7.75. On to `C[C@@]1(O)CC[C@H]2[C@H](CC[C@@H]3[C@@H]2CC[C@@]2(C)[C@H]3[C@@H]3C[C@@H]3[C@@H]2C(=O)CNc2ccc(F)cc2)C1` [Example 97, 2-((4-Fluorophenyl)amino)-1-((2R,4aS,4bR,6aS,7S,7aS,8aR,8bR,8cR,10aR)-2-hydroxy-2,6a-dimethyloctadecahydrocyclopropa[4,5]cyclopenta[1,2-a]phenanthren-7-yl)ethan-1-one], for which the pIC50 is 7.52.

`CC[C@@H]1C[C@H](C(=O)Cn2nnc(C)n2)[C@@]2(C)CC[C@H]3[C@@H](CC[C@@H]4C[C@](C)(O)CC[C@@H]43)[C@H]12` [Example 139, 1-((3R,5R,8R,9R,10S,13S,14S,15R,17S)-15-Ethyl-3-hydroxy-3,13-dimethylhexadecahydro-1H-cyclopenta[a]phenanthren-17-yl)-2-(5-methyl-2H-tetrazol-2-yl)ethan-1-one]: the pIC50 is 7.57. Next, `CSc1cnn(CC(=O)[C@H]2[C@H]3C[C@H]3[C@H]3[C@@H]4CC[C@@H]5C[C@](C)(O)CC[C@@H]5[C@H]4CC[C@@]32C)c1` [Example 122, 1-((2R,4aS,4bR,6aS,7S,7aS,8aR,8bR,8cR,10aR)-2-Hydroxy-2,6a-dimethyloctadecahydrocyclopropa[4,5]cyclopenta[1,2-a]phenanthren-7-yl)-2-(4-(methylthio)-1H-pyrazol-1-yl)ethan-1-one]: 7.34; `CC[C@@H]1C[C@H](C(=O)Cn2nc(C#N)cc2C#N)[C@@]2(C)CC[C@H]3[C@@H](CC[C@@H]4C[C@](C)(O)CC[C@@H]43)[C@H]12` [Example 142, 1-(2-((3R,5R,8R,9R,10S,13S,14S,15R,17S)-15-Ethyl-3-hydroxy-3,13-dimethylhexadecahydro-1H-cyclopenta[a]phenanthren-17-yl)-2-oxoethyl)-1H-pyrazole-3,5-dicarbonitrile]: 7.79; `CC[C@@H]1C[C@H](C(=O)Cn2ncnn2)[C@@]2(C)CC[C@H]3[C@@H](CC[C@@H]4C[C@](C)(O)CC[C@@H]43)[C@H]12` [Example 149, 1-((3R,5R,8R,9R,10S,13S,14S,15R,17S)-15-Ethyl-3-hydroxy-3,13-dimethylhexadecahydro-1H-cyclopenta[a]phenanthren-17-yl)-2-(2H-tetrazol-2-yl)ethan-1-one]: 7.59. As for `C[C@@]1(O)CC[C@H]2[C@H](CC[C@@H]3[C@@H]2CC[C@@]2(C)[C@H]3[C@@H]3C[C@@H]3[C@@H]2C(=O)Cn2cc3ccncc3n2)C1` [Example 41, 1-((2R,4aS,4bR,6aS,7S,7aS,8aR,8bR,8cR,10aR)-2-hydroxy-2,6a-dimethyloctadecahydrocyclopropa[4,5]cyclopenta[1,2-a]phenanthren-7-yl)-2-(2H-pyrazolo[3,4-c]pyridin-2-yl)ethan-1-one], the figure is 7.64.

Regarding `C[C@@]1(O)CC[C@H]2[C@H](CC[C@@H]3[C@@H]2CC[C@@]2(C)[C@H]3[C@H](C3CC3)C[C@@H]2C(=O)Cn2cc(C#N)c(Cl)n2)C1` [Example 147, 3-Chloro-1-(2-((3R,5R,8R,9R,10S,13S,14S,15S,17S)-15-cyclopropyl-3-hydroxy-3,13-dimethylhexadecahydro-1H-cyclopenta[a]phenanthren-17-yl)-2-oxoethyl)-1H-pyrazole-4-carbonitrile], the pIC50 was 7.61.
